Each structure is given as a SMILES string. The source made the active and inactive calls. The calls are words filed in the database; no cut-off is given here.

The species named for the first data set is Homo sapiens. Nature of the data set: Potency index, ratio of IC50 of acarbose to IC50 of compound for inhibition of alpha-glucosidase (unknown origin).
For `COc1ccc(CN2C(=O)C3(c4cc(Br)ccc42)[C@H](C(=O)/C=C/c2ccc(N(C)C)cc2)[C@@H](c2ccc(N(C)C)cc2)[C@@H]2CSCN23)cc1` (stereo not given in full), the Ratio IC50 stood at 14.

In another data set the test system is HepG2. Nature of the data set: Cytotoxicity against human HepG2 cells. In kind it is cell-based.
Turning to `COc1ccc(CN2C(=O)C3(c4cc(Br)ccc42)[C@H](C(=O)/C=C/c2ccc(N(C)C)cc2)[C@@H](c2ccc(N(C)C)cc2)[C@@H]2CSCN23)cc1` (stereo not given in full), the Activity result is “Non-Toxic”.

A further data set relates to HepG2. Nature of the data set: Increase in glucose consumption in human HepG2 cells at 1 to 5 uM. In kind it is functional, cell-based.
On to `COc1ccc(CN2C(=O)C3(c4cc(Br)ccc42)[C@H](C(=O)/C=C/c2ccc(N(C)C)cc2)[C@@H](c2ccc(N(C)C)cc2)[C@@H]2CSCN23)cc1` (stereo not given in full), for which the result was Active.

The species entered for the next data set is Homo sapiens. Nature of the data set: Reversible competitive inhibition of alpha-glucosidase (unknown origin) by Lineweaver-Burk plot analysis.
Turning to `COc1ccc(CN2C(=O)C3(c4cc(Br)ccc42)[C@H](C(=O)/C=C/c2ccc(N(C)C)cc2)[C@@H](c2ccc(N(C)C)cc2)[C@@H]2CSCN23)cc1` (stereo not given in full), the inhibition entry is “Active”.

Target in the next data set: not listed separately
Nature of the data set: Inhibition of alpha-glucosidase (unknown origin). The arrangement: species or system Homo sapiens.
With `CN(C)c1ccc(/C=C/C(=O)[C@@H]2[C@@H](c3ccc(N(C)C)cc3)[C@@H]3CSCN3C23C(=O)Nc2ccccc23)cc1` (stereo not given in full), the IC50 (in general, the concentration that gives 50% inhibition) is 4.81 µM.
`O=C(/C=C/c1ccccc1Cl)[C@@H]1[C@@H](c2ccccc2Cl)[C@@H]2CSCN2C12C(=O)Nc1ccccc12` (stereo not given in full) registered an IC50 of 9.8 µM.
On the same count and under the same terms, the figure for `O=C(/C=C/c1ccccc1)[C@@H]1[C@@H](c2ccccc2)[C@@H]2CSCN2C12C(=O)Nc1ccccc12` (stereo not given in full) is 16.1 µM.
On the same count and under the same terms, the figure for `COc1ccc(CN2C(=O)C3(c4cc(Br)ccc42)[C@H](C(=O)/C=C/c2ccc(N(C)C)cc2)[C@@H](c2ccc(N(C)C)cc2)[C@@H]2CSCN23)cc1` (stereo not given in full) is 3.64 µM; for `CCN(CC)c1ccc(/C=C/C(=O)[C@@H]2[C@@H](c3ccc(N(CC)CC)cc3)[C@@H]3CSCN3C23C(=O)N(Cc2ccc(OC)cc2)c2ccc(/C=C/C(=O)OC)cc23)cc1` (stereo not given in full) it is 7.43 µM.
Turning to `COC(=O)/C=C/c1ccc2c(c1)C1(C(=O)N2Cc2ccc(OC)cc2)[C@H](C(=O)/C=C/c2ccc(Br)cc2)[C@@H](c2ccc(Br)cc2)[C@@H]2CSCN21` (stereo not given in full), half-maximal inhibition (IC50) was put at 8.44 µM.
On the same count and under the same terms, the figure for `COc1ccc(CN2C(=O)C3(c4cc(Br)ccc42)[C@H](C(=O)/C=C/c2ccccc2Br)[C@@H](c2ccccc2Br)[C@@H]2CSCN23)cc1` (stereo not given in full) is 4.09 µM; for `COC(=O)/C=C/c1ccc2c(c1)C1(C(=O)N2Cc2ccc(OC)cc2)[C@H](C(=O)/C=C/c2ccccc2Br)[C@@H](c2ccccc2Br)[C@@H]2CSCN21` (stereo not given in full) it is 4.68 µM.
For `COc1ccc(/C=C/C(=O)[C@@H]2[C@@H](c3ccc(OC)c(OC)c3)[C@@H]3CSCN3C23C(=O)Nc2ccccc23)cc1OC` (stereo not given in full), the 50% inhibitory concentration (IC50) was > 50 µM.
Molecule `COC(=O)/C=C/c1ccc2c(c1)C1(C(=O)N2Cc2ccc(OC)cc2)[C@H](C(=O)/C=C/c2ccccc2)[C@@H](c2ccccc2)[C@@H]2CSCN21` (stereo not given in full) showed a half-maximal inhibitory concentration (IC50) of 8.33 µM. This lies in the single-digit micromolar range.
Same read-out and setting: the figure for `O=C(/C=C/c1ccc(Cl)cc1)[C@@H]1[C@@H](c2ccc(Cl)cc2)[C@@H]2CSCN2C12C(=O)Nc1ccccc12` (stereo not given in full) is 7.49 µM; for `C[C@H]1O[C@H](O[C@H]2[C@H](O)[C@@H](O)[C@@H](O[C@H]3[C@H](O)[C@@H](O)C(O)O[C@@H]3CO)O[C@@H]2CO)[C@H](O)[C@@H](O)[C@@H]1N[C@H]1C=C(CO)[C@@H](O)[C@H](O)[C@H]1O` (stereo not given in full) [ACARBOSE] it is 50.3 µM.
Still for that read-out and setting: the figure for `COC(=O)/C=C/c1ccc2c(c1)C1(C(=O)N2Cc2ccc(OC)cc2)[C@H](C(=O)/C=C/c2ccc(Cl)cc2Cl)[C@@H](c2ccc(Cl)cc2Cl)[C@@H]2CSCN21` (stereo not given in full) is 4.49 µM; for `COc1ccc(CN2C(=O)C3(c4cc(Br)ccc42)[C@H](C(=O)/C=C/c2ccc(Cl)cc2)[C@@H](c2ccc(Cl)cc2)[C@@H]2CSCN23)cc1` (stereo not given in full) it is 3.9 µM; for `COC(=O)/C=C/c1ccc2c(c1)C1(C(=O)N2Cc2ccc(OC)cc2)[C@H](C(=O)/C=C/c2ccc(Cl)cc2)[C@@H](c2ccc(Cl)cc2)[C@@H]2CSCN21` (stereo not given in full) it is 4.73 µM.
Still for that read-out and setting: the value for `Cc1ccc(/C=C/C(=O)[C@@H]2[C@@H](c3ccc(C)cc3)[C@@H]3CSCN3C23C(=O)Nc2ccccc23)cc1` (stereo not given in full) was 18.9 µM.
For `O=C(/C=C/c1ccc(Cl)cc1Cl)[C@@H]1[C@@H](c2ccc(Cl)cc2Cl)[C@@H]2CSCN2C12C(=O)Nc1ccccc12` (stereo not given in full), it took 7.4 µM to reach half-maximal inhibition (IC50). This IC50 lies about 2.6-fold lower than the previous one.
Same read-out and setting: the value for `COc1ccc(CN2C(=O)C3(c4cc(Br)ccc42)[C@H](C(=O)/C=C/c2ccc(Cl)cc2Cl)[C@@H](c2ccc(Cl)cc2Cl)[C@@H]2CSCN23)cc1` (stereo not given in full) was 14.1 µM; that for `COC(=O)/C=C/c1ccc2c(c1)C1(C(=O)N2Cc2ccc(OC)cc2)[C@H](C(=O)/C=C/c2ccc(-c3ccccc3)cc2)[C@@H](c2ccc(-c3ccccc3)cc2)[C@@H]2CSCN21` (stereo not given in full) was 4.14 µM; that for `O=C(/C=C/c1ccccc1Br)[C@@H]1[C@@H](c2ccccc2Br)[C@@H]2CSCN2C12C(=O)Nc1ccccc12` (stereo not given in full) was 4.47 µM.
On the same count and under the same terms, the figure for `COC(=O)/C=C/c1ccc2c(c1)C1(C(=O)N2Cc2ccc(OC)cc2)[C@H](C(=O)/C=C/c2ccc(OC)cc2)[C@@H](c2ccc(OC)cc2)[C@@H]2CSCN21` (stereo not given in full) is 3.81 µM; for `COC(=O)/C=C/c1ccc2c(c1)C1(C(=O)N2Cc2ccc(OC)cc2)[C@H](C(=O)/C=C/c2ccc(F)cc2)[C@@H](c2ccc(F)cc2)[C@@H]2CSCN21` (stereo not given in full) it is 4.47 µM; for `COC(=O)/C=C/c1ccc2c(c1)C1(C(=O)N2Cc2ccc(OC)cc2)[C@H](C(=O)/C=C/c2ccc(N(C)C)cc2)[C@@H](c2ccc(N(C)C)cc2)[C@@H]2CSCN21` (stereo not given in full) it is 9.47 µM.
The same measure, in the same setting: the figure for `O=C(/C=C/c1ccc(Cl)cc1)[C@@H]1[C@@H](c2ccc(Cl)cc2)[C@@H]2CSCN2C12C(=O)Nc1ccc(Br)cc12` (stereo not given in full) is 4.9 µM; for `COc1ccc(CN2C(=O)C(=O)c3cc(Br)ccc32)cc1` it is 39.9 µM.
Take `O=C(/C=C/c1ccco1)[C@@H]1[C@@H](c2ccco2)[C@@H]2CSCN2C12C(=O)Nc1ccccc12` (stereo not given in full): the IC50 was > 50 µM.

(Values after ChEMBL document CHEMBL4622916, “Synthesis of tetracyclic oxindoles and evaluation of their α-glucosidase inhibitory and glucose consumption-promoting activity” (Bioorg Med Chem Lett, 2020).)
